Measured values taken from article PMC6994260 (Nature chemistry, 2019).

Tests used:
[1] = molecular target: T1, demethylmenaquinone methyltransferase (MenG) (Staphylococcus aureus, UniProt P67062); conditions: labelled compound; DMK-2 as acceptor, 80 min
T1 sequence (P67062 1-241): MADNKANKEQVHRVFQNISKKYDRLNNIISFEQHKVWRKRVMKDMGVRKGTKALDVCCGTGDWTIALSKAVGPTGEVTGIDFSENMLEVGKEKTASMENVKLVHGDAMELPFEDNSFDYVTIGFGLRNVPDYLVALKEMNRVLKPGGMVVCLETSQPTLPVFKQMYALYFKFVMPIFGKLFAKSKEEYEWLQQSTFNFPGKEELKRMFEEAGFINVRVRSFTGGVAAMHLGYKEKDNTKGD

[2] = molecular target: T2, signal peptidase IB (SpsB) (Staphylococcus aureus, UniProt Q5HHB9); assay: FRET-peptide cleavage by endogenous SpsB in S. aureus membranes; assay type: biochemical; conditions: activator; 50 uM compound, 0.2 mg/mL total membrane protein
T2 sequence (Q5HHB9 1-191): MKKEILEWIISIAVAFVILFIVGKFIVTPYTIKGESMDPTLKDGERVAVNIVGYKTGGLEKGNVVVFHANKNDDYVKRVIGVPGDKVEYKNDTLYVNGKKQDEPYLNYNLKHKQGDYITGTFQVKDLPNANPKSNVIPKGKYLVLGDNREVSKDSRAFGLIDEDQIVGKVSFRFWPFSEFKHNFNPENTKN

[3] = molecular target: T1, demethylmenaquinone methyltransferase (MenG); assay: MenG methylation assay in lysate; assay type: biochemical; conditions: inhibitor; SAM and DMK-2 as substrates, 80 min
[4] = molecular target: T1, demethylmenaquinone methyltransferase (MenG); assay: LC-MS of menaquinone-2 formed in lysate; assay type: biochemical; conditions: S-adenosyl-L-methionine as methyl donor, 80 min

SMILES | SpsB activity (normalized) at 50 μM [2] | % MenG activity of DMSO control [3] | also measured
C[S+](CC[C@H](N)C(=O)O)C[C@H]1O[C@@H](n2cnc3c(N)ncnc32)[C@H](O)[C@@H]1O (stereo partly drawn) [SAM, S-adenosyl-L-methionine] |  |  | [3H]methyl transfer to DMK-2, liquid scintillation counting [1]: radiolabelled methyl group of cofactor S-adenosyl-L-methionine
O=C(Nc1ccc(Cl)c(C(F)(F)F)c1)Nc1cccc2c1OC(F)(F)O2 [1-164] | 1.42 ± 0.08 fold of DMSO control |  | 
O=C(Nc1ccc2c(c1)OC(F)(F)O2)Nc1ccc(Cl)c(C(F)(F)F)c1 [PK150] | 2.54 ± 0.39 fold of DMSO control | Menaquinone-2 synthesis was enhanced in MenG-overexpressing cells and again significantly inhibited by PK150 | 
CC(C)=CCC/C(C)=C/CC1=CC(=O)c2ccccc2C1=O [DMK-2, demethylmenaquinone-2] |  |  | LC-MS of menaquinone-2 formed in lysate [4]: methylation of non-naturally occurring demethylmenaquinone-2 by lysates of MenG-overexpressing and wild type S. aureus
CNC(=O)c1cc(Oc2ccc(NC(=O)Nc3ccc(Cl)c(C(F)(F)F)c3)cc2)ccn1 [SFN, sorafenib] | 1.64 ± 0.12 fold of DMSO control | SFN caused a weaker inhibition in these assays | 
O=C(Nc1ccc2c(c1)OCO2)Nc1ccc(Cl)c(C(F)(F)F)c1 [1-159] | 1.40 ± 0.01 fold of DMSO control |  | 
